The source of these data is the NIST ThermoML archive (doi:10.1016/j.jct.2017.04.009).

This series can be described thus: xn = mol fraction of the nth substance listed. The note with it: Liquid, pressure decay method.

As to `CCCCCC[n+]1ccn(C)c1.O=S(=O)([N-]S(=O)(=O)C(F)(F)F)C(F)(F)F` + O=C=O, the binary diffusion coefficient stood at 2.64e-10 m2/s (283.2 K, 91.5 kPa, x2 = 0); 3.89e-10 m2/s (298.2 K, 99.7 kPa, x2 = 0); 5.97e-10 m2/s (313.2 K, 103.4 kPa, x2 = 0).

For the compound `CC(F)(F)F` [1,1,1-trifluoroethane] + CCCCCC[n+]1ccn(C)c1.O=S(=O)([N-]S(=O)(=O)C(F)(F)F)C(F)(F)F, the binary diffusion coefficient is 1.84e-10 m2/s (303.2 K, 104 kPa, x1 = 0); 2.4e-10 m2/s (313.2 K, 98.7 kPa, x1 = 0); 3.35e-10 m2/s (323.2 K, 99.5 kPa, x1 = 0); 3.97e-10 m2/s (333.2 K, 102.6 kPa, x1 = 0); 5.1e-10 m2/s (343.2 K, 99.7 kPa, x1 = 0).

For `CC(F)(F)F` [1,1,1-trifluoroethane] + CCCCCCn1cc[n+](C)c1.F[B-](F)(F)F, the binary diffusion coefficient (303.2 K, 149.1 kPa, x1 = 0) came to 7.7e-11 m2/s; the binary diffusion coefficient (313.2 K, 159.2 kPa, x1 = 0) was found to be 1.15e-10 m2/s; the binary diffusion coefficient (323.2 K, 173.5 kPa, x1 = 0) stood at 1.89e-10 m2/s; the binary diffusion coefficient (333.2 K, 187.6 kPa, x1 = 0) turned out to be 2.62e-10 m2/s; the binary diffusion coefficient (343.2 K, 189 kPa, x1 = 0) amounted to 3.39e-10 m2/s.

With `CC(F)F` [1,1-difluoroethane] + CCCCCC[n+]1ccn(C)c1.O=S(=O)([N-]S(=O)(=O)C(F)(F)F)C(F)(F)F, the binary diffusion coefficient by setting is: (303.2 K, 87.7 kPa, x1 = 0) 9.9e-11 m2/s; (313.2 K, 89.1 kPa, x1 = 0) 1.41e-10 m2/s; (323.2 K, 92.5 kPa, x1 = 0) 2.02e-10 m2/s; (333.2 K, 96.4 kPa, x1 = 0) 2.61e-10 m2/s; (343.2 K, 93.8 kPa, x1 = 0) 3.16e-10 m2/s.

As to `CC(F)F` [1,1-difluoroethane] + CCCCCCn1cc[n+](C)c1.F[B-](F)(F)F, the binary diffusion coefficient by setting is: (303.2 K, 95.1 kPa, x1 = 0) 7.4e-11 m2/s; (313.2 K, 101.6 kPa, x1 = 0) 1.07e-10 m2/s; (323.2 K, 102 kPa, x1 = 0) 1.59e-10 m2/s; (333.2 K, 97.8 kPa, x1 = 0) 2.07e-10 m2/s; (343.2 K, 98.5 kPa, x1 = 0) 2.56e-10 m2/s.

For `CCCCCCn1cc[n+](C)c1.F[B-](F)(F)F` [1-hexyl-3-methylimidazolium tetrafluoroborate] + FCF, the binary diffusion coefficient runs as follows: (303.2 K, 95.7 kPa, x2 = 0) 1.29e-10 m2/s; (313.2 K, 102 kPa, x2 = 0) 1.8e-10 m2/s; (323.2 K, 99.1 kPa, x2 = 0) 2.55e-10 m2/s; (333.2 K, 103.5 kPa, x2 = 0) 3.57e-10 m2/s; (343.2 K, 99.9 kPa, x2 = 0) 4.76e-10 m2/s.

For the compound `CCCCCCn1cc[n+](C)c1.O=S(=O)([O-])C(F)(F)F` [1-hexyl-3-methylimidazolium trifluoromethanesulfonate] + C=C(F)C(F)(F)F, the binary diffusion coefficient (303.2 K, 104.3 kPa, x2 = 0) worked out at 1.46e-10 m2/s; the binary diffusion coefficient (313.2 K, 101.6 kPa, x2 = 0) was 2e-10 m2/s; the binary diffusion coefficient (323.2 K, 106.7 kPa, x2 = 0) worked out at 2.66e-10 m2/s; the binary diffusion coefficient (333.2 K, 100.8 kPa, x2 = 0) was determined as 3.76e-10 m2/s; the binary diffusion coefficient (343.2 K, 109 kPa, x2 = 0) came out at 4.97e-10 m2/s.

In the case of `CCCCCCn1cc[n+](C)c1.O=S(=O)([O-])C(F)(F)F` [1-hexyl-3-methylimidazolium trifluoromethanesulfonate] + CC(F)(F)F, the binary diffusion coefficient is, setting by setting: (303.2 K, 97.3 kPa, x2 = 0) 1.96e-10 m2/s; (313.2 K, 110.5 kPa, x2 = 0) 2.61e-10 m2/s; (323.2 K, 105.4 kPa, x2 = 0) 3.48e-10 m2/s; (333.2 K, 108.8 kPa, x2 = 0) 4.58e-10 m2/s; (343.2 K, 106.3 kPa, x2 = 0) 6.13e-10 m2/s.

`CCCCCCn1cc[n+](C)c1.O=S(=O)([O-])C(F)(F)F` [1-hexyl-3-methylimidazolium trifluoromethanesulfonate] + CC(F)F: the binary diffusion coefficient was found to be 1.48e-10 m2/s (303.2 K, 86.8 kPa, x2 = 0); 2.13e-10 m2/s (313.2 K, 95.7 kPa, x2 = 0); 2.82e-10 m2/s (323.2 K, 98 kPa, x2 = 0); 3.79e-10 m2/s (333.2 K, 101.9 kPa, x2 = 0); 4.73e-10 m2/s (343.2 K, 99.1 kPa, x2 = 0).

As for `CCCCCCn1cc[n+](C)c1.O=S(=O)([O-])C(F)(F)F` [1-hexyl-3-methylimidazolium trifluoromethanesulfonate] + CCF, the binary diffusion coefficient by setting is: (303.2 K, 94.5 kPa, x2 = 0) 2.08e-10 m2/s; (313.2 K, 103.8 kPa, x2 = 0) 2.75e-10 m2/s; (323.2 K, 97 kPa, x2 = 0) 3.68e-10 m2/s; (333.2 K, 94.4 kPa, x2 = 0) 4.76e-10 m2/s; (343.2 K, 98.1 kPa, x2 = 0) 5.91e-10 m2/s.

Regarding `CCCCCCn1cc[n+](C)c1.O=S(=O)([O-])C(F)(F)F` [1-hexyl-3-methylimidazolium trifluoromethanesulfonate] + FC(F)C(F)(F)F, the binary diffusion coefficient reads like this: (303.2 K, 97.2 kPa, x2 = 0) 2.38e-10 m2/s; (313.2 K, 98.5 kPa, x2 = 0) 3.05e-10 m2/s; (323.2 K, 99.1 kPa, x2 = 0) 4.17e-10 m2/s; (333.2 K, 100.9 kPa, x2 = 0) 5.25e-10 m2/s; (343.2 K, 103.8 kPa, x2 = 0) 6.19e-10 m2/s.

With `CCCCCCn1cc[n+](C)c1.O=S(=O)([O-])C(F)(F)F` [1-hexyl-3-methylimidazolium trifluoromethanesulfonate] + FCF, the binary diffusion coefficient was 3.01e-10 m2/s (303.2 K, 98.2 kPa, x2 = 0); 4.27e-10 m2/s (313.2 K, 102 kPa, x2 = 0); 5.35e-10 m2/s (323.2 K, 99.3 kPa, x2 = 0); 6.82e-10 m2/s (333.2 K, 100.2 kPa, x2 = 0); 8.35e-10 m2/s (343.2 K, 100.4 kPa, x2 = 0).

With `C=C(F)C(F)(F)F` [2,3,3,3-tetrafluoro-1-propene] + CCCCCC[n+]1ccn(C)c1.O=S(=O)([N-]S(=O)(=O)C(F)(F)F)C(F)(F)F, the binary diffusion coefficient (303.2 K, 96.7 kPa, x1 = 0) is 1.39e-10 m2/s; the binary diffusion coefficient (313.2 K, 95.6 kPa, x1 = 0) is 1.99e-10 m2/s; the binary diffusion coefficient (323.2 K, 97.7 kPa, x1 = 0) turned out to be 2.75e-10 m2/s; the binary diffusion coefficient (333.2 K, 98.3 kPa, x1 = 0) worked out at 4.01e-10 m2/s; the binary diffusion coefficient (343.2 K, 102.9 kPa, x1 = 0) worked out at 5.96e-10 m2/s.

`C=C(F)C(F)(F)F` [2,3,3,3-tetrafluoro-1-propene] + CCCCCCn1cc[n+](C)c1.F[B-](F)(F)F: the binary diffusion coefficient by setting is: (303.2 K, 158.3 kPa, x1 = 0) 6.9e-11 m2/s; (313.2 K, 168.4 kPa, x1 = 0) 1.02e-10 m2/s; (323.2 K, 170 kPa, x1 = 0) 1.59e-10 m2/s; (333.2 K, 185.3 kPa, x1 = 0) 2.47e-10 m2/s; (343.2 K, 189 kPa, x1 = 0) 3.59e-10 m2/s.

Consider `FCF` [difluoromethane] + CCCCCC[n+]1ccn(C)c1.O=S(=O)([N-]S(=O)(=O)C(F)(F)F)C(F)(F)F, for which the binary diffusion coefficient came to 1.55e-10 m2/s (303.2 K, 92.8 kPa, x1 = 0); 2.15e-10 m2/s (313.2 K, 93.9 kPa, x1 = 0); 2.77e-10 m2/s (323.2 K, 94.4 kPa, x1 = 0); 3.68e-10 m2/s (333.2 K, 94.3 kPa, x1 = 0); 4.78e-10 m2/s (343.2 K, 95.2 kPa, x1 = 0).

With `CCF` [fluoroethane] + CCCCCC[n+]1ccn(C)c1.O=S(=O)([N-]S(=O)(=O)C(F)(F)F)C(F)(F)F, the binary diffusion coefficient (303.2 K, 90.2 kPa, x1 = 0) worked out at 1.28e-10 m2/s; the binary diffusion coefficient (313.2 K, 91.1 kPa, x1 = 0) was 2.08e-10 m2/s; the binary diffusion coefficient (323.2 K, 93.4 kPa, x1 = 0) came to 2.96e-10 m2/s; the binary diffusion coefficient (333.2 K, 93 kPa, x1 = 0) worked out at 3.46e-10 m2/s; the binary diffusion coefficient (343.2 K, 92.5 kPa, x1 = 0) amounted to 4.13e-10 m2/s.
